Laboratory results from US20120289492A1, “METHODS OF TREATING MITOCHONDRIAL DISORDERS USING METALLOPORPHYRINS” (priority 2009, published 2012).

Conditions: mouse, in vivo, po, 15 mg/kg
Experimental: In another exemplary method, oral administration of AEOL11207 was examined for efficiently to penetrate the blood-brain barrier (BBB) and brain mitochondria. To determine if AEOL11207 penetrates the BBB, preliminary studies were conducted in mice following injection of AEOL 11207. Mice were given a single dose of the compound (15 mg/kg, p.o. AEOL 11207) or vehicle (control). At various times after injection, mice were perfused and brains (cortex) and plasma were extracted with methanol and samples analyzed by an HPLC method as described previously. […] FIGS. 3A and 3B illustrate plasma and brain concentrations of AEOL11207 following s.c. or p.o. administration. […]
FIGS. 3A-3B illustrate exemplary concentrations of AEOL11207 in the plasma (3A) and brains (3B) of the C57BL/6 mice at different times points after a single dose of AEOL11207 (15 mg/kg) administered by the s.c or p.o. route. […] FIG. 3C illustrates an exemplary chromatogram of AEOL 11207 levels measured by HPLC with UV detection at 450 nm in mitochondrial fractions of mouse forebrain 24 hr after AEOL11207 15 mg/kg s.c. as previously described. Recovery of AEOL11207 from mitochondrial samples was determined to be ˜98%. […]
Determination of metalloporphyrin levels AEOL11207 was measured by HPLC-UV following previously described methods (Liang, et al. (2007) J Neurosci 27, 4326-33).

## COC(=O)c1c2nc(c(C(F)(F)F)c3ccc([n-]3)c(C(=O)OC)c3nc(c(C(F)(F)F)c4ccc1[n-]4)C=C3)C=C2.[Cl-].[Mn+3] [AEOL11207]
  estimated concentration in the brain: within the protective range
